From patent US20250122211A1, “NITROGEN-CONTAINING TETRACYCLIC COMPOUND, PREPARATION METHOD THEREFOR, AND MEDICAL USE THEREOF” (Jiangsu Hengrui Pharmaceuticals Co., Ltd., priority 2021, published 2025) come the findings set out here.

Common to all, as to type: cell-based
One experiment deals with H358 cells. Nature of the experiment: H358 proliferation assay (CellTiter-Glo). Conditions: 120 h incubation, read-out: IC50 (nM), inhibitory activity against H358 cell proliferation. How it is done: The inhibitory activity of the compounds of the present disclosure against H358 cell proliferation was measured. Below is a brief description of the experimental method: H358 cells (ATCC, CRL-5807) were cultured in RPMI1640 medium (Hyclone, SH30809.01) containing 10% fetal bovine serum (Corning, 35-076-CV) (i.e., complete medium). On the first day of the experiment, H358 cells were seeded into a 96-well plate at a density of 1200 cells/well using complete medium, with 100 μL of cell suspension per well, and the plate was incubated overnight in a 37° C., 5% CO2 cell incubator. On the second day, the test compounds, prepared in complete medium and serially diluted, were added at 10 μL/well. The final concentrations of the compounds were 9 concentration points obtained by a 5-fold serial dilution from 10 μM. A blank control containing 0.5% DMSO was set up. The plate was incubated for 120 h in a 37° C., 5% CO2 cell incubator. On the seventh day, the 96-well cell plate was removed from the incubator, and CellTiter-Glo® Luminescent Cell Viability Assay (Promega, G7573) was added at 50 μL/well. After 10 min of room temperature incubation, luminescence signals were measured using a multifunctional microplate reader (PerkinElmer, EnVision® 2105). The IC50 values for the inhibitory activity of the compounds were calculated using Graphpad Prism software.

The test system of experiment [1] is ERK phosphorylation in H358 cells. The experiment can be described thus: H358 cell ERK phosphorylation inhibition assay (HTRF pERK/total ERK). Conditions: 3 h incubation, ratio of pERK/total ERK, read-out: IC50 (nM), inhibitory effects on ERK phosphorylation in H358 cells. The procedure: The inhibitory effects of the compounds of the present disclosure on ERK phosphorylation in H358 cells were measured. Below is a brief description of the experimental method: H358 cells (ATCC, CRL-5807) were cultured in RPMI1640 medium (Hyclone, SH30809.01) containing 10% fetal bovine serum (Corning, 35-076-CV) (i.e., complete medium). On the first day of the experiment, H358 cells were seeded into a 96-well plate at a density of 25,000 cells/well using complete medium, with 190 μL of cell suspension per well, and the plate was incubated overnight in a 37° C., 5% CO2 cell incubator. On the second day, the test compounds, prepared in complete medium and serially diluted, were added at 10 μL/well. The final concentrations of the compounds were 9 concentration points obtained by a 6-fold serial dilution from 10 μM. A blank control containing 0.5% DMSO was set up. The plate was incubated for 3 h in a 37° C., 5% CO2 cell incubator. After 3 h, the 96-well cell culture plate was removed from the incubator, and the culture medium was pipetted off. PBS (Shanghai BasalMedia Technologies Co., Ltd., B320) was added at 200 μL/well for a single wash. PBS was pipetted off, and lysis buffer (Cisbio, 64KL1FDF) containing a blocking agent (Cisbio, 64KB1AAC) was added at 50 μL/well. The plate was incubated on a shaker for 30 min at room temperature to lyse the cells. After lysis, the lysates were well mixed by pipetting, and 16 μL of lysate was transferred from each well to two HTRF 96-well assay plates (Cisbio, 66PL96100). Subsequently, 4 μL of a premixed phospho-ERK1/2 antibody solution (Cisbio, 64AERPEG) or 4 μL of a premixed total-ERK1/2 antibody solution (Cisbio, 64NRKPEG) was added to each of the plates. The plates were sealed with a plate sealer film, centrifuged for 1 min in a microplate centrifuge, and incubated overnight at room temperature in the dark. On the third day, fluorescence values at an excitation wavelength of 337 nm and emission wavelengths of 665 nm and 620 nm were measured using a PHERAstar multifunctional microplate reader (BMG Labtech, PHERAstar FS). The IC50 values for the inhibitory activity of the compounds were calculated using Graphpad Prism software, based on the compound concentration and the ratio of pERK/total ERK.

The next experiment deals with MIA PaCa-2 cells. Nature of the experiment: MIA PaCa-2 cell proliferation assay (CellTiter-Glo). Conditions: 72 h incubation, read-out: IC50 (nM), inhibitory activity against MIA PaCa-2 cell proliferation. The procedure:
The inhibitory activity of the compounds of the present disclosure against MIA PaCa-2 cell proliferation was measured. Below is a brief description of the experimental method:
MIA PaCa-2 cells (ATCC, CRL-1420) were cultured in DMEM/HIGH GLUCOSE medium (GE, SH30243.01) containing 10% fetal bovine serum (Corning, 35-076-CV) and 2.5% horse serum (Beyotime Biological Tech., C0262) (i.e., complete medium). On the first day of the experiment, MIA PaCa-2 cells were seeded into a 96-well plate at a density of 500 cells/well using complete medium, with 90 µL of cell suspension per well, and the plate was incubated overnight in a 37° C., 5% CO2 cell incubator. On the second day, the test compounds, prepared in complete medium and serially diluted, were added at 10 μL/well. The final concentrations of the compounds were 9 concentration points obtained by a 5-fold serial dilution from 10 μM. A blank control containing 0.5% DMSO was set up. The plate was incubated for 72 h in a 37° C., 5% CO2 cell incubator. On the fifth day, the 96-well cell plate was removed from the incubator, and CellTiter-Glo® Luminescent Cell Viability Assay (Promega, G7573) was added at 50 μL/well. After 10 min of room temperature incubation, luminescence signals were measured using a multifunctional microplate reader (PerkinElmer, EnVision2015). The IC50 values for the inhibitory activity of the compounds were calculated using Graphpad Prism software.

Like-named read-outs stand apart in the source and are kept apart here.

`C=C(F)C(=O)N1CCN2C(=O)c3cc(F)c(-c4ccc(F)c5sc(N)c(C#N)c45)c4c(C)nn(c34)CC[C@H]2C1` (atropisomer, axis not shown) [Example 15-P1, (R)-2-Amino-7-fluoro-4-((S)-2-fluoro-10-(2-fluoroacryloyl)-4-methyl-14-oxo-8,8a,9,10,11,12-hexahydro-7H,14H-pyrazino[1′,2′:5,6][1,5]diazocino[3,2,1-hi]indazol-3-yl)benzo[b]thiophene-3-carbonitrile]: the figures for the IC50 (in the experiment with H358 cells; in experiment [1]; in the experiment on MIA PaCa-2 cells) were 41.6 nM, 19.7 nM and 56.8 nM, respectively.
For `C=CC(=O)N1CCN2C(=O)c3cc(F)c(-c4ccc(F)c5sc(N)c(C#N)c45)c4cc(C)n(c34)CC[C@H]2C1` [Example 4, 4-((S)-10-Acryloyl-2-fluoro-5-methyl-14-oxo-8,8a,9,10,11,12-hexahydro-7H,14H-pyrazino[1′,2′:5,6][1,5]diazocino[3,2,1-hi]indol-3-yl)-2-amino-7-fluorobenzo[b]thiophene-3-carbonitrile], the IC50 in the experiment on H358 cells (Homo sapiens, NCI-H358, 120 h) came to 13.4 nM; in experiment [1] (Homo sapiens, NCI-H358, 3 h), 1.16 nM; in the experiment with MIA PaCa-2 cells (Homo sapiens, MIA PaCa-2, 72 h), 11.2 nM.
`C=CC(=O)N1CCN2C(=O)c3cc(F)c(-c4ccc(F)c5sc(N)c(C#N)c45)c4c(Cl)nn(c34)CC[C@H]2C1` (atropisomer, axis not shown) [Example 7-P2, (S)-4-((S)-10-Acryloyl-4-chloro-2-fluoro-14-oxo-8,8a,9,10,11,12-hexahydro-7H,14H-pyrazino[1′,2′:5,6][1,5]diazocino[3,2,1-hi]indazol-3-yl)-2-amino-7-fluorobenzo[b]thiophene-3-carbonitrile]: the IC50 with H358 cells (Homo sapiens, NCI-H358, 120 h) worked out at 0.74 nM; in experiment [1] (Homo sapiens, NCI-H358, 3 h), 0.13 nM; in the experiment on MIA PaCa-2 cells (Homo sapiens, MIA PaCa-2, 72 h) it was 0.28 nM.
As for `C=CC(=O)N1CCN2C(=O)c3cc(F)c(-c4ccc(F)c5sc(N)c(C#N)c45)c4c(F)nn(c34)CC[C@H]2C1` (atropisomer, axis not shown) [Example 8-P2, (S)-4-((S)-10-Acryloyl-2,4-difluoro-14-oxo-8,8a,9,10,11,12-hexahydro-7H,14H-pyrazino[1′,2′:5][1,5]diazocino[3,2,1-hi]indazol-3-yl)-2-amino-7-fluorobenzo[b]thiophene-3-carbonitrile], the IC50 with H358 cells (Homo sapiens, NCI-H358, 120 h) came out at 0.84 nM; in experiment [1] (Homo sapiens, NCI-H358, 3 h), 0.16 nM; in the experiment with MIA PaCa-2 cells (Homo sapiens, MIA PaCa-2, 72 h) it was 0.19 nM.
Turning to `C=CC(=O)N1CCN2C(=O)c3cc(F)c(-c4ccc(F)c5sc(N)c(C#N)c45)c4nnn(c34)CC[C@H]2C1` (atropisomer, axis not shown) [Example 20-P2, (S)-4-((S)-9-Acryloyl-2-fluoro-12-oxo-7,7a,8,9,10,11-hexahydro-6H,12H-4,5,5a,9,11a-pentaazabenzo[5,6]cycloocta[1,2,3-cd]inden-3-yl)-2-amino-7-fluorobenzo[b]thiophene-3-carbonitrile], the IC50 in the experiment on H358 cells (Homo sapiens, NCI-H358, 120 h) amounted to 7.9 nM; in experiment [1], 0.88 nM; in the experiment with MIA PaCa-2 cells (Homo sapiens, MIA PaCa-2, 72 h) it was 1.21 nM.
